{"source": "patent US20220235047A1", "about": "“A MEDICAMENT FOR TREATING MYCOBACTERIAL INFECTION CHARACTERIZED BY COMBINING A CYTOCHROME bc1 INHIBITOR WITH CLARITHROMYCIN OR AZITHROMYCIN AND CLOFAZIMINE” (priority 2019, published 2022)", "key": {"cytochrome bc1": {"target": "cytochrome bc1 (Mycobacterium tuberculosis, UniProt P9WP37)", "sequence (P9WP37 whole entry, looked up)": "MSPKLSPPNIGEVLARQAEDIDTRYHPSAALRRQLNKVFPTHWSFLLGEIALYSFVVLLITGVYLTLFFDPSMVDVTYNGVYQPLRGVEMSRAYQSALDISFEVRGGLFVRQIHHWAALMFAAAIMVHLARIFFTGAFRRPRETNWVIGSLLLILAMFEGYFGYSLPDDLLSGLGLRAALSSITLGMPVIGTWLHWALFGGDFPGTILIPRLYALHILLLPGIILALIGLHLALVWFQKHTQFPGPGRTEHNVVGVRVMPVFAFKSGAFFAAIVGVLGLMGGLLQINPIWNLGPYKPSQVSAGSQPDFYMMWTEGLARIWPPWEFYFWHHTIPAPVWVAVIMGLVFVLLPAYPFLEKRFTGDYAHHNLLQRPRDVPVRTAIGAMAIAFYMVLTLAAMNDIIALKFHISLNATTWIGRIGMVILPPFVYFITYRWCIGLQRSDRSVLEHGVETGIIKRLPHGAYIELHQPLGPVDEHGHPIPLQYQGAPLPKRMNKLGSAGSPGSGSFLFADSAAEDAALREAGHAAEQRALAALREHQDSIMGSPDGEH", "conditions": "described in WO2017/049321 (HT-21) and WO2011/113606 (Q203); cited from earlier work"}, "TB": {"test_system": "TB", "conditions": "in vitro and in vivo mouse model; cited from earlier work"}, "M. intracellulare": {"test_system": "M. intracellulare", "conditions": "in vitro, majority of M. intracellulare isolates; cited from earlier work"}, "MAC": {"test_system": "MAC", "conditions": "pulmonary disease patients infected by MAC; relapse still occurred; cited from earlier work"}, "M. avium": {"test_system": "M. avium", "conditions": "in vitro; cited from earlier work"}, "[1]": {"test_system": "Mycobacterium avium ATCC700898", "assay": "Test1: mouse lung infection model, CFU in lungs after 2 weeks of treatment", "procedure": "There were 9 study groups and 4 mice per group\nAll treatments were evaluated on Mycobacterium avium ATCC700898.\nAll formulations prepared in 20% Tween20, 80% aq. (20% HP-ß-CD and 0. 6% HPMC, pH3).\nAll formulations were solutions and prepared every day.\nTime Schedule, after mice were infected.\nThe mice were infected with Mycobacterium avium strain.\nWhen 0.07 mL of this dilution is injected, each mouse receives 10^6 bacteria.\n36 female 8-weeks old BALB/c mice, Charles River, were inoculated intranasally with 0.07 mL of a bacterial suspension containing ±10^6 colony forming units (CFU). […]\nThe effectiveness of treatments was assessed by counting the numbers of colony-forming-units (CFU) in the lungs. • 1.8 mL Mueller Hinton Broth (MHB) was added to each homogenization tube containing lung. • Lungs were homogenized, and four 10-fold serial dilutions were made in MHB. • From each individual lung, 100 μL of the undiluted suspension and four serial 10-fold dilutions, were plated on 7H10 agar plates. • CFU's were counted after incubation at 35° C. for 2 weeks. • The bactericidal effect of the treatment was defined as a significant decrease of the mean number of CFU in the treated group compared to pre-treatment value."}, "[2]": {"test_system": "cytochrome P-450 (CYP) 3A", "conditions": "cited from earlier work"}, "[3]": {"test_system": "Mycobacterium avium ATCC700898", "assay": "Test2: mouse lung infection model, CFU in lungs after 2 weeks of treatment", "assay_type": "in vivo", "conditions": "day 15, CAM 200 mg/kg", "from_the_text": "There were 6 study groups and 4 mice per group\n(§1) Almost protocol was the same as the protocol described in Test1 above."}, "[4]": {"test_system": "Mycobacterium avium ATCC700898", "assay": "Test3: mouse lung infection model, CFU in lungs after 2 weeks of treatment", "assay_type": "in vivo", "conditions": "day 15, AZM 10 mg/kg, RFP 10 mg/kg, ETB 100 mg/kg, CFZ 20 mg/kg, Q203 5 mg/kg", "from_the_text": "as §1"}}, "data": [{"smiles": "CCc1nc2cc(C)ccn2c1C(=O)NCc1ccc(N2CCC(c3ccc(OC(F)(F)F)cc3)CC2)cc1", "note": "[Q203]", "values": [{"measurement": "cytochrome bc1 inhibitory activity", "setting": "cytochrome bc1", "result": "excellent cytochrome bc1 inhibitory activity"}, {"measurement": "growth of TB", "setting": "TB", "result": "inhibited the growth of TB"}]}, {"smiles": "CC(C)/N=c1\\cc2n(-c3ccc(Cl)cc3)c3ccccc3nc-2cc1Nc1ccc(Cl)cc1", "note": "[CFZ, Clofazimine]", "values": [{"measurement": "MIC", "setting": "M. intracellulare", "result": "< 1", "unit": "mg/L"}, {"measurement": "proportion of patients converted to negative cultures", "setting": "MAC", "result": "significantly greater proportion"}, {"measurement": "MIC", "setting": "M. avium", "result": "1 to 4", "unit": "mg/L"}]}, {"smiles": "Cc1ccn2c(C(=O)NCc3ccc(N4CCCN(c5ccc(C(F)(F)F)cc5)CC4)c(F)c3)c(C)nc2c1", "note": "[HT-21]", "values": [{"measurement": "efficacy (CFU in lungs), in words", "setting": "[1]; HT-21 200 mg/kg added to clarithromycin+clofazimine, cut off 2.00", "result": "the effect reached plateau"}, {"measurement": "cytochrome bc1 inhibitory activity", "setting": "cytochrome bc1", "result": "excellent cytochrome bc1 inhibitory activity"}]}, {"smiles": "CC[C@H]1OC(=O)[C@H](C)[C@@H](O[C@H]2C[C@@](C)(OC)[C@@H](O)[C@H](C)O2)[C@H](C)[C@@H](O[C@@H]2O[C@H](C)C[C@H](N(C)C)[C@H]2O)[C@](C)(OC)C[C@@H](C)C(=O)[C@H](C)[C@@H](O)[C@]1(C)O", "note": "[CAM, Clarithromycin]", "values": [{"measurement": "inhibition of CYP3A", "setting": "[2]", "result": "inhibits"}, {"measurement": "Mean Log10 (CFU in lungs)", "setting": "[1]; BALB/c mice, day 15, oral once daily, 10 doses, CAM 200 mg/kg, RFP 20 mg/kg, ETB 100 mg/kg, CFZ 20 mg/kg", "result": 3.98}, {"measurement": "drop in mean log 10 CFU from Control 2", "setting": "[3]", "result": 1.0}, {"measurement": "Mean Log10 (CFU in lungs)", "setting": "[3]; CFZ 20 mg/kg, HT-21 5 mg/kg or Q203 5 mg/kg", "result": 4.85}]}, {"smiles": "CC[C@H]1OC(=O)[C@H](C)[C@@H](O[C@H]2C[C@@](C)(OC)[C@@H](O)[C@H](C)O2)[C@H](C)[C@@H](O[C@@H]2O[C@H](C)C[C@H](N(C)C)[C@H]2O)[C@](C)(O)C[C@@H](C)CN(C)[C@H](C)[C@@H](O)[C@]1(C)O", "note": "[AZM, Azithromycin]", "values": [{"measurement": "inhibition of CYP3A", "setting": "[2]", "result": "does not inhibit"}, {"measurement": "Mean Log10 (CFU in lungs)", "setting": "[4]", "result": 6.19}]}]}
